Measurements: ChEMBL document CHEMBL1201862, “PubChem BioAssay data set” (2004)
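All cell lines were grown in 96-well plates and treated with compound for 48 hours. GI50 = concentration required for 50% inhibition of growth.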 The source made the active and inactive calls. Rule as the data show it: active = GI50 up to about 1.1 µM and inactive = higher.

Key:
Experiment in all cases: NCI tumour cell line growth inhibition, 48 h
SK-MEL-5 = system: SK-MEL-5
RXF 393 = system: RXF 393
U-251 = system: U-251
NCI-H522 = system: NCI-H522
SK-OV-3 = system: SK-OV-3
HOP-92 = system: HOP-92
SR = system: SR
Hs-578T = system: Hs-578T
MOLT-4 = system: MOLT-4
SW-620 = system: SW-620
BT-549 = system: BT-549
CCRF-CEM = system: CCRF-CEM
NCI-H460 = system: NCI-H460
COLO 205 = system: COLO 205
HL-60 = system: HL-60
HOP-62 = system: HOP-62
SF-268 = system: SF-268
OVCAR-3 = system: OVCAR-3
A498 = system: A498
EKVX = system: EKVX
RPMI-8226 = system: RPMI-8226
HCT-15 = system: HCT-15
MDA-N = system: MDA-N
SN12C = system: SN12C
HT-29 = system: HT-29
Malme-3M = system: Malme-3M
T47D = system: T47D
UO-31 = system: UO-31
IGROV-1 = system: IGROV-1
SK-MEL-2 = system: SK-MEL-2
SF-539 = system: SF-539
MCF7 = system: MCF7
SF-295 = system: SF-295
MDA-MB-435 = system: MDA-MB-435
A549 = system: A549
TK-10 = system: TK-10
786-0 = system: 786-0
DU-145 = system: DU-145
K562 = system: K562
ACHN = system: ACHN
UACC-257 = system: UACC-257
NCI-H23 = system: NCI-H23
SNB-19 = system: SNB-19
LOX IMVI = system: LOX IMVI
M14 = system: M14
KM12 = system: KM12
HCC 2998 = system: HCC 2998
MDA-MB-231 = system: MDA-MB-231
OVCAR-8 = system: OVCAR-8
NCI/ADR-RES = system: NCI/ADR-RES
UACC-62 = system: UACC-62
OVCAR-5 = system: OVCAR-5
HCT-116 = system: HCT-116
NCI-H226 = system: NCI-H226
PC-3 = system: PC-3
SK-MEL-28 = system: SK-MEL-28
OVCAR-4 = system: OVCAR-4
SNB-75 = system: SNB-75
CAKI-1 = system: CAKI-1

O=C(CCCl)NN=C1NCCCN1
GI50 (SK-MEL-5): > 100 µM (inactive)
GI50 (RXF 393): > 100 µM (inactive)
GI50 (U-251): > 100 µM (inactive)
GI50 (NCI-H522): > 100 µM (inactive)
GI50 (SK-OV-3): > 100 µM (inactive)
GI50 (HOP-92): > 100 µM (inactive)
GI50 (SR): > 100 µM (inactive)
GI50 (Hs-578T): > 100 µM (inactive)
GI50 (MOLT-4): > 100 µM (inactive)
GI50 (SW-620): > 100 µM (inactive)
GI50 (BT-549): > 100 µM (inactive)
GI50 (CCRF-CEM): > 100 µM (inactive)
GI50 (NCI-H460): > 100 µM (inactive)
GI50 (COLO 205): > 100 µM (inactive)
GI50 (HL-60): > 100 µM (inactive)
GI50 (HOP-62): > 100 µM (inactive)
GI50 (SF-268): > 100 µM (inactive)
GI50 (OVCAR-3): > 100 µM (inactive)
GI50 (A498): > 100 µM (inactive)
GI50 (EKVX): > 100 µM (inactive)
GI50 (RPMI-8226): > 100 µM (inactive)
GI50 (HCT-15): > 100 µM
GI50 (MDA-N): > 100 µM (inactive)
GI50 (SN12C): > 100 µM (inactive)
GI50 (HT-29): > 100 µM (inactive)
GI50 (Malme-3M): > 100 µM (inactive)
GI50 (T47D): > 100 µM (inactive)
GI50 (UO-31): > 100 µM (inactive)
GI50 (IGROV-1): > 100 µM (inactive)
GI50 (SK-MEL-2): > 100 µM (inactive)
GI50 (SF-539): > 100 µM (inactive)
GI50 (MCF7): > 100 µM (inactive)
GI50 (SF-295): > 100 µM (inactive)
GI50 (MDA-MB-435): > 100 µM (inactive)
GI50 (A549): > 100 µM (inactive)
GI50 (TK-10): > 100 µM (inactive)
GI50 (786-0): > 100 µM (inactive)
GI50 (DU-145): > 100 µM (inactive)
GI50 (K562): > 100 µM (inactive)
GI50 (ACHN): > 100 µM (inactive)
GI50 (UACC-257): > 100 µM (inactive)
GI50 (NCI-H23): > 100 µM (inactive)
GI50 (SNB-19): > 100 µM (inactive)
GI50 (LOX IMVI): > 100 µM (inactive)
GI50 (M14): > 100 µM (inactive)
GI50 (KM12): > 100 µM (inactive)
GI50 (HCC 2998): > 100 µM (inactive)
GI50 (MDA-MB-231): > 100 µM (inactive)
GI50 (OVCAR-8): > 100 µM (inactive)
GI50 (NCI/ADR-RES): > 100 µM (inactive)
GI50 (UACC-62): > 100 µM (inactive)
GI50 (OVCAR-5): > 100 µM (inactive)
GI50 (HCT-116): > 100 µM (inactive)
GI50 (NCI-H226): > 100 µM (inactive)
GI50 (PC-3): > 100 µM (inactive)
GI50 (SK-MEL-28): > 100 µM (inactive)
GI50 (OVCAR-4): > 100 µM (inactive)
GI50 (SNB-75): > 100 µM (inactive)

Oc1cc(Cl)cc2cc(Br)cnc12
GI50 (SK-MEL-5): 1.53 µM (inactive)
GI50 (RXF 393): 2.29 µM (inactive)
GI50 (U-251): 2.07 µM (inactive)
GI50 (NCI-H522): 2.74 µM (inactive)
GI50 (SK-OV-3): > 59.8 µM (inactive)
GI50 (HOP-92): 4.69 µM (inactive)
GI50 (SR): 1.42 µM (inactive)
GI50 (Hs-578T): 4.62 µM (inactive)
GI50 (MOLT-4): 2.04 µM (inactive)
GI50 (SW-620): 3.96 µM (inactive)
GI50 (BT-549): 1.53 µM (inactive)
GI50 (CCRF-CEM): 1.9 µM (inactive)
GI50 (NCI-H460): 1.99 µM (inactive)
GI50 (COLO 205): 41.6 µM (inactive)
GI50 (HL-60): 0.258 µM (active)
GI50 (HOP-62): 3.4 µM (inactive)
GI50 (SF-268): 1.59 µM (inactive)
GI50 (OVCAR-3): 1.52 µM (inactive)
GI50 (A498): 27.7 µM (inactive)
GI50 (EKVX): 4.14 µM (inactive)
GI50 (RPMI-8226): 1.42 µM (inactive)
GI50 (HCT-15): 0.771 µM
GI50 (MDA-N): 2.3 µM (inactive)
GI50 (SN12C): 2.23 µM (inactive)
GI50 (HT-29): 11.3 µM (inactive)
GI50 (Malme-3M): 2.23 µM (inactive)
GI50 (T47D): 7.28 µM (inactive)
GI50 (UO-31): 3.94 µM (inactive)
GI50 (CAKI-1): 6.79 µM (inactive)
GI50 (IGROV-1): 2.92 µM (inactive)
GI50 (SF-539): 2.18 µM (inactive)
GI50 (MCF7): 3.1 µM (inactive)
GI50 (SF-295): 2.96 µM (inactive)
GI50 (MDA-MB-435): 4.65 µM (inactive)
GI50 (A549): 3.27 µM (inactive)
GI50 (TK-10): 41.3 µM (inactive)
GI50 (786-0): 9.86 µM (inactive)
GI50 (DU-145): 5.14 µM (inactive)
GI50 (K562): 1.69 µM (inactive)
GI50 (ACHN): 1.88 µM (inactive)
GI50 (UACC-257): 2.63 µM (inactive)
GI50 (NCI-H23): 4.39 µM (inactive)
GI50 (SNB-19): 4.1 µM (inactive)
GI50 (LOX IMVI): 0.463 µM (active)
GI50 (M14): 1.56 µM (inactive)
GI50 (KM12): 4.69 µM (inactive)
GI50 (HCC 2998): 15.6 µM (inactive)
GI50 (MDA-MB-231): 2.56 µM (inactive)
GI50 (OVCAR-8): 2.3 µM (inactive)
GI50 (NCI/ADR-RES): 2.06 µM (inactive)
GI50 (UACC-62): 6.27 µM (inactive)
GI50 (OVCAR-5): 8.95 µM (inactive)
GI50 (HCT-116): 1.09 µM (active)
GI50 (NCI-H226): 22.6 µM (inactive)
GI50 (PC-3): 2.57 µM (inactive)
GI50 (SK-MEL-28): 7.16 µM (inactive)
GI50 (OVCAR-4): 3.49 µM (inactive)
GI50 (SNB-75): 13.6 µM (inactive)
